{"source": "paper PMC3830123", "about": "(Biomolecules & Therapeutics, 2013)", "assay_type_in_all_cases": "biochemical", "key": {"[1]": {"molecular_target": "T1, dopamine β-hydroxylase (DBH) (Homo sapiens, UniProt P09172)", "T1 sequence (P09172 1-617)": "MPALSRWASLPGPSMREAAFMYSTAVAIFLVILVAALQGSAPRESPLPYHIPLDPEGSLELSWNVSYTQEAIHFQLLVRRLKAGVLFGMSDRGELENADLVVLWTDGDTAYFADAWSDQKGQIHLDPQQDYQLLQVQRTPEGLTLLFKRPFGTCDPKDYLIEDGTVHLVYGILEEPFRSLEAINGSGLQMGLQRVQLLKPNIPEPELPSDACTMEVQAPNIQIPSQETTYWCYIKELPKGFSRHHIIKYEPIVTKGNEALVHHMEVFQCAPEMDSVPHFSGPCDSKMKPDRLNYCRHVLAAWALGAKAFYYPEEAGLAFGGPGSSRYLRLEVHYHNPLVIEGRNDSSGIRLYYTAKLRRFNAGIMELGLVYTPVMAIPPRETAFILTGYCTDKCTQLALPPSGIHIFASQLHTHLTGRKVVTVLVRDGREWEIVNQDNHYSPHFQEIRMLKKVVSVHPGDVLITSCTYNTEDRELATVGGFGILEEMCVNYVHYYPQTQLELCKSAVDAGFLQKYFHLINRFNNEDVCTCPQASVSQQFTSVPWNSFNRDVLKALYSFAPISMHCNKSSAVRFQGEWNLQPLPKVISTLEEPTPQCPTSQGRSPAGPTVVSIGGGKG", "assay": "DBH assay in vitro, tyramine as substrate"}, "[2]": {"molecular_target": "T2, Rat liver mitochondrial MAO (MAO-B) (Rattus norvegicus, UniProt P19643)", "T2 sequence (P19643 1-520)": "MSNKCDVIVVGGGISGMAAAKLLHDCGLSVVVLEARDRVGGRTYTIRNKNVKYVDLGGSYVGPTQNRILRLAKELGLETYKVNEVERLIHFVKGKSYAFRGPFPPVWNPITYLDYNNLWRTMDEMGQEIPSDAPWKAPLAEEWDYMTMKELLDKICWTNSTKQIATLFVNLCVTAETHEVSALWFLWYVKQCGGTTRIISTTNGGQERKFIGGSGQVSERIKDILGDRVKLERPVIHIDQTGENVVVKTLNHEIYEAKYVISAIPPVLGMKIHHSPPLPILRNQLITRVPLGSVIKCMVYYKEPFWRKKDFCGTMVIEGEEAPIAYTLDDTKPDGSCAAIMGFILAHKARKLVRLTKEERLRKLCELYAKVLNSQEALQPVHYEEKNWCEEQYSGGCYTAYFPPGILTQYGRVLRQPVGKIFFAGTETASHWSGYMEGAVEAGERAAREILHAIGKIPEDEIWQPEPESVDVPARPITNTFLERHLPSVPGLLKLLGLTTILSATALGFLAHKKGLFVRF", "assay": "MAO-B assay in vitro, benzylamine as substrate", "conditions": "IC50 values MAO-B, isolated compounds, Table 2"}, "[3]": {"molecular_target": "T3, Rat brain mitochondrial MAO (MAO-A) (Rattus norvegicus, UniProt P21396)", "T3 sequence (P21396 1-526)": "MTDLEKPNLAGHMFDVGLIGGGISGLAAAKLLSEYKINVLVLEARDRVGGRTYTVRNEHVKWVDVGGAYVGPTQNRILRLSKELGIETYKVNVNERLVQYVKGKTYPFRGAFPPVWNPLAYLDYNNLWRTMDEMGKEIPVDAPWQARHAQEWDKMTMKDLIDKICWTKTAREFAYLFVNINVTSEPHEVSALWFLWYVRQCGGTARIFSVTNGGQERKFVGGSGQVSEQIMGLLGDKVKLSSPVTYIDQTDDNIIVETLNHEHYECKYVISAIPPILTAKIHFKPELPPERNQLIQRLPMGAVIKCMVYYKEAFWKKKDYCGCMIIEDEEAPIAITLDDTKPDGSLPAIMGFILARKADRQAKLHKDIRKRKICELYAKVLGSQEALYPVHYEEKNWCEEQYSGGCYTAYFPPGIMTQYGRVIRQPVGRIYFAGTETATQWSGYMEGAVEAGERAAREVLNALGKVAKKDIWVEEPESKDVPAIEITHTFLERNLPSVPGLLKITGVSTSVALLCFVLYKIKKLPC", "assay": "MAO-A assay in vitro, serotonin as substrate"}}}
{"smiles": "CC(C)=CCC/C(C)=C/Cc1c(O)ccc(C(=O)/C=C/c2ccc(O)cc2)c1O", "note": "[Xanthoangelol]", "values": [{"measurement": "IC50", "setting": "[1]", "result": 516, "unit": "µM"}, {"measurement": "IC50", "setting": "[2]", "result": 43.9, "unit": "µM"}, {"measurement": "IC50", "setting": "[3]", "result": 43.4, "unit": "µM"}]}
